Results: patent US4220755A, “Fortimicin B derivatives and process for production thereof” (Abbott Laboratories, priority 1976, dated 1980)
In brackets after ≈: the same amount, converted by molar mass. Like-named read-outs stand apart in the source and are kept apart here.

Tests used:
Assay in all cases: MIC, agar dilution method, pH 8.0
Type in all cases: cell-based
[1] = test system: Eschericia coli KY4271 ATCC26; conditions: Escherichia coli
Procedure: (§1) Measurement was carried out according to the agar dilution method, using a medium of pH 8.0, or the Japanese Antibiotic Medicament Standard, using a medium of pH 7.2 Units are in mcg/ml.
E.C.: Eschericia coli KY4271 ATCC26

[2] = test system: Staphylococcus aureus KY4279 ATCC6538P
Procedure: as §1
S.A.: Staphylococcus aureus KY4279 ATCC6538P

[3] = test system: Klebsiella pneumoniae KY4275 ATCC10031; conditions: ATCC10031; pH 8.0; Klebsiella pneumoniae KY4275; read-out: Minimum inhibition concentration (MIC), KP
Procedure: as §1
K.P.: Klebsiella pneumoniae KY4275 ATCC10031.

[4] = test system: Salmonella typhosa KY4278 ATCC9992; conditions: Salmonella enterica, pH 8, read-out: Minimum inhibition concentration (MIC), ST
Procedure: as §1
S.T.: Salmonella typhosa KY4278 ATCC9992

[5] = test system: Bacillus subtilis KY4273
Procedure: as §1
B.S.: Bacillus subtilis KY4273

[6] = test system: Proteus vulgaris KY4277 ATCC6897
Procedure: as §1

[7] = test system: Shigella sonnei KY4281 ATCC9290
Procedure: as §1

[8] = ATCC26, pH 8.0, E. coli KY4271, read-out: Minimum inhibition concentration (MIC), EC
[9] = pH 8.0, Staphylococcus aureus KY4279, read-out: Minimum inhibition concentration (MIC), SA
[10] = pH 8.0, Bacillus subtilis KY4273, read-out: Minimum inhibition concentration (MIC), BS
[11] = ATCC6897, pH 8.0, Proteus vulgaris KY4277, read-out: Minimum inhibition concentration (MIC), PV
[12] = ATCC9290, pH 8.0, Shigella sonnei KY4281, read-out: Minimum inhibition concentration (MIC), SS
[13] = Staphylococcus aureus, pH 8, read-out: Minimum inhibition concentration (MIC), SA
[14] = ATCC26, pH 8, read-out: Minimum inhibition concentration (MIC), EC
[15] = Bacillus subtilis, KY4273, pH 8, read-out: Minimum inhibition concentration (MIC), BS

SMILES | MIC [1, 8] [µg/mL] | MIC [2, 9] [µg/mL] | MIC [3] [µg/mL] | MIC [4] [µg/mL] | MIC [5, 10] [µg/mL] | MIC [6, 11] [µg/mL] | MIC [7, 12] [µg/mL] | MIC [2, 13] [µg/mL] | MIC [1, 14] [µg/mL] | MIC [5, 15] [µg/mL] | MIC ([6]; Proteus vulgaris, ATCC6897, pH 8, read-out: Minimum inhibition concentration (MIC), PV) [µg/mL] | MIC ([7]; Shigella sonnei, ATCC9290, pH 8, read-out: Minimum inhibition concentration (MIC), SS) [µg/mL]
CCCCCN(C)[C@H]1[C@@H](O)[C@H](O[C@H]2O[C@H]([C@H](C)N)CC[C@H]2N)[C@@H](N)[C@H](O)[C@@H]1OC [Compound 19, 4-N-(n-pentyl)fortimicin B] | 100 (≈ 239 µM) | 25 (≈ 59.7 µM) | > 200 | 100 (≈ 239 µM) | 200 (≈ 478 µM) | > 200 | 100 (≈ 239 µM) | – | – | – | – | –
CO[C@H]1[C@@H](O)[C@H](N)[C@@H](O[C@H]2O[C@H]([C@H](C)N)CC[C@H]2N)[C@H](O)[C@@H]1N(C)CCCN [Compound 20, 4-N-(3-aminopropyl)fortimicin B] | 5 (≈ 12.3 µM) | – | 80 (≈ 197 µM) | 1.25 (≈ 3.08 µM) | 2.5 (≈ 6.16 µM) | 10 (≈ 24.7 µM) | 20 (≈ 49.3 µM) | 1.25 (≈ 3.08 µM) | – | – | – | –
CO[C@H]1[C@@H](O)[C@H](N)[C@@H](O[C@H]2O[C@H]([C@H](C)N)CC[C@H]2N)[C@H](O)[C@@H]1N(C)CCCCN [Compound 21, 4-N-(4-aminobutyl)fortimicin B] | – | 0.32 (≈ 0.763 µM) | 5 (≈ 11.9 µM) | 1.25 (≈ 2.98 µM) | 0.32 (≈ 0.763 µM) | 2.5 (≈ 5.96 µM) | 2.5 (≈ 5.96 µM) | – | 1.25 (≈ 2.98 µM) | – | – | –
CO[C@H]1[C@@H](O)[C@H](N)[C@@H](O[C@H]2O[C@H]([C@H](C)N)CC[C@H]2N)[C@H](O)[C@@H]1N(C)CCCCCN [Compound 22, 4-N-(5-aminopentyl)fortimicin B] | 5 (≈ 11.5 µM) | 1.25 (≈ 2.88 µM) | 20 (≈ 46.1 µM) | 2.5 (≈ 5.77 µM) | 0.63 (≈ 1.45 µM) | 10 (≈ 23.1 µM) | 5 (≈ 11.5 µM) | – | – | – | – | –
CO[C@H]1[C@@H](O)[C@H](N)[C@@H](O[C@H]2O[C@H]([C@H](C)N)CC[C@H]2N)[C@H](O)[C@@H]1N(C)CCCCCCN [Compound 23, 4-N-(6-aminohexyl)fortimicin B] | 20 (≈ 44.7 µM) | 5 (≈ 11.2 µM) | > 80 | 20 (≈ 44.7 µM) | 5 (≈ 11.2 µM) | > 80 | > 80 | – | – | – | – | –
CO[C@H]1[C@@H](O)[C@H](N)[C@@H](O[C@H]2O[C@H]([C@H](C)N)CC[C@H]2N)[C@H](O)[C@@H]1N(C)CCO [Compound 24, 4-N-(2-hydroxyethyl)fortimicin B] | 5 (≈ 12.7 µM) | – | 40 (≈ 102 µM) | 1.25 (≈ 3.18 µM) | > 80 | 10 (≈ 25.5 µM) | 10 (≈ 25.5 µM) | 1.25 (≈ 3.18 µM) | – | – | – | –
CO[C@H]1[C@@H](O)[C@H](N)[C@@H](O[C@H]2O[C@H]([C@H](C)N)CC[C@H]2N)[C@H](O)[C@@H]1N(C)CCNCCN [Compound 25, 4-N-[2-(2-aminoethyl)aminoethyl]fortimicin B] | – | 0.63 (≈ 1.45 µM) | 5 (≈ 11.5 µM) | 1.25 (≈ 2.88 µM) | – | 5 (≈ 11.5 µM) | 5 (≈ 11.5 µM) | – | 1.25 (≈ 2.88 µM) | 1.25 (≈ 2.88 µM) | – | –
CNCCN(C)[C@H]1[C@@H](O)[C@H](O[C@H]2O[C@H]([C@H](C)N)CC[C@H]2N)[C@@H](N)[C@H](O)[C@@H]1OC [Compound 26, 4-N-(2-methylaminoethyl)fortimicin B] | 0.16 (≈ 0.395 µM) | 0.04 (≈ 0.0986 µM) | 5 (≈ 12.3 µM) | 1.25 (≈ 3.08 µM) | 0.32 (≈ 0.789 µM) | – | 5 (≈ 12.3 µM) | – | – | – | 1.25 (≈ 3.08 µM) | –
CNCCC(O)CN(C)[C@H]1[C@@H](O)[C@H](O[C@H]2O[C@H]([C@H](C)N)CC[C@H]2N)[C@@H](N)[C@H](O)[C@@H]1OC (stereo partly drawn) [Compound 30, 4-N-[(R,S)-4-methylamino-2-hydroxybutyl]fortimicin B] | 0.32 (≈ 0.712 µM) | 0.08 (≈ 0.178 µM) | 0.32 (≈ 0.712 µM) | 0.08 (≈ 0.178 µM) | 0.02 (≈ 0.0445 µM) | 0.16 (≈ 0.356 µM) | 0.63 (≈ 1.4 µM) | – | – | – | – | –
CO[C@H]1[C@@H](O)[C@H](N)[C@@H](O[C@H]2O[C@H]([C@H](C)N)CC[C@H]2N)[C@H](O)[C@@H]1N(C)C[C@@H](O)CN [Compound 31, 4-N-[(S)-3-amino-2-hydroxypropyl]fortimicin B] | 2.5 (≈ 5.93 µM) | 0.16 (≈ 0.38 µM) | 2.5 (≈ 5.93 µM) | 0.63 (≈ 1.49 µM) | 0.32 (≈ 0.759 µM) | 1.25 (≈ 2.97 µM) | 2.5 (≈ 5.93 µM) | – | – | – | – | –
CO[C@H]1[C@@H](O)[C@H](N)[C@@H](O[C@H]2O[C@H]([C@H](C)N)CC[C@H]2N)[C@H](O)[C@@H]1N(C)C[C@@H](O)CCCN [Compound 33, 4-N-[(S)-5-amino-2-hydroxypentyl]fortimicin B] | 2.5 (≈ 5.56 µM) | 0.32 (≈ 0.712 µM) | – | 10 (≈ 22.2 µM) | – | 5 (≈ 11.1 µM) | – | – | – | 1.25 (≈ 2.78 µM) | – | 1.25 (≈ 2.78 µM)
